Like-named read-outs stand apart in the source and are kept apart here.
Assay type: physicochemical
Protocol: A 10 mL solution of M4N at a concentration of about 10 mg/mL in 40% BP-β-CD was made as follows. About 10 mL of the 40% HP-β-CD solution were added to a glass beaker containing a stir bar. The beaker was placed on a magnetic plate and the stir bar was set to stir at medium speed. About […] of M4N were slowly added to the 40% HP-β-CD in the center of the beaker with the aid of a spatula. The M4N/40% HP-β-CD mixture was stirred for 2 hr or until all M4N was uniformly suspended without any clumps being present. The M4N/40% HP-β-CD mixture was optionally heated at 80° C. for about 30 min. (or longer if a larger volume of solution was desired, for example, 1 hr at 80° C. for 100 mL of the M4N/HP-β-CD mixture), or longer as needed to ensure complete dissolution of M4N. […] The final M4N/40% HP-β-CD solution was stored at room temperature and was kept protected from light. This process may be scaled up or down to obtain the requisite volume or concentration of M4N. Formulations containing M4N in other cyclodextrin solutions may be similarly made, such as, for example, by substituting HP-β-CD in the process described above with other cyclodextrins. […]
A 10 mL solution of M4N at a concentration of about 10 mg/mL in 50% HP-β-CD/0.5% HPMC was made as follows. About 10 mL of the 50% HP-β-CD/0.5% HPMC solution were added to a glass beaker containing a stir bar. The beaker was placed on a magnetic plate and the stir bar was set to stir at medium speed. About 100 mg of M4N were slowly added to the 50% HP-β-CD/0.5% HPMC in the center of the beaker with the aid of a spatula. The M4N/50% HP-β-CD/0.5% HPMC mixture was stirred for 24 hr or until all M4N was uniformly suspended without any clumps being present. The M4N/50% HP-β-CD/0.5% HPMC mixture was heated at about 90° C. for about 30 min. (or longer if a larger volume of solution was desired, for example, 1 hr at 90° C. for 500 mL of the M4N/50% HP-β-CD/0.5% HPMC mixture), or longer as needed to ensure complete dissolution of M4N. […] The final M4N/50% HP-β-CD/0.5% HPMC solution was stored at room temperature and was kept protected from light.
A 10 mL solution of M4N at a concentration of about 20 mg/mL in 5% EC (w/v) (the “EC formulation”) was made as follows. About 10 mL of 5% EC formulation, made as described above, were added to a glass beaker containing a stir bar. The beaker was placed on a magnetic plate and the stir bar was set to stir at medium speed, and covered with a round Teflon® cover. About 200 mg of M4N were slowly added to the 5% EC formulation in the center of the beaker with the aid of a spatula to prevent M4N from sticking to the beaker wall. The M4N/EC mixture was stirred for 2 hr or until all M4N had dissolved or was uniformly suspended without any clumps being present. The M4N/EC mixture was heated at about 60° C. for about 30 min. (or longer if a larger volume of solution was desired, for example, 1 hr at 60° C. for 500 mL of the M4N/EC mixture), or longer as needed to ensure complete dissolution of M4N. […] The final M4N/EC solution was stored at room temperature and was kept protected from light.
A 10 mL solution of M4N at a concentration of about 50 mg/mL in sesame oil was made as follows. About 10 mL of sesame oil were added to a glass beaker containing a stir bar. The beaker was placed on a magnetic plate and the stir bar was set to stir at medium speed. About 500 mg of M4N were slowly added to the sesame oil in the center of the beaker with the aid of a spatula to prevent M4N from sticking to the beaker wall. The M4N/sesame oil mixture was stirred for about 2 hr or until all M4N had dissolved or was uniformly suspended without any clump being present. The M4N/sesame oil mixture was heated at about 60° C. for about 30 min. (or longer if a larger volume of solution was desired, for example, 1 hr at 60° C. for 500 mL of the M4N/sesame oil mixture), or longer as need to ensure complete dissolution of M4N. […]

[1] = M4N 10 mg/mL in 32% HP-β-CD, 20% PEG 400 (v/v)
[2] = M4N 10 mg/mL in 40% HP-β-CD, 1% PVP (w/v)
[3] = M4N 10 mg/mL in 40% HP-β-CD, 5% PEG 400 (v/v)
[4] = M4N 10 mg/mL in 50% HP-β-CD in saline
[5] = M4N 10 mg/mL in 50% HP-β-CD, 0.5% HPMC
[6] = M4N 10 mg/mL in 50% HP-β-CD, 1.25% PVP (w/v)
[7] = M4N 12.5 mg/mL in 12.5% HP-β-CD, 50% PEG 300 (v/v)
[8] = M4N 12.5 mg/mL in 12.5% HP-β-CD, 50% PEG 400 (v/v)
[9] = M4N 12.5 mg/mL in 15% HP-β-CD, 50% PEG 300 (v/v)
[10] = M4N 12.5 mg/mL in 15% HP-β-CD, 50% PEG 400 (v/v)
[11] = M4N 12.5 mg/mL in 20% HP-β-CD, 50% PEG 300 (v/v)
[12] = M4N 12.5 mg/mL in 20% HP-β-CD, 50% PEG 400 (v/v)
[13] = M4N 12.5 mg/mL in 30% HP-β-CD, 25% PEG 400 (v/v)
[14] = M4N 12.9 mg/mL in 23% HP-β-CD, 43% PEG 400 (v/v)
[15] = M4N 12.9 mg/mL in 23% HP-β-CD, 43 PEG 300 (v/v)
[16] = M4N 13.3 mg/mL in 27% HP-β-CD, 33% PEG 300 (v/v)
For Dissolution After Cool Down in this document: key: N represents 'No'; Y represents 'Yes.'.

COc1ccc(C[C@@H](C)[C@@H](C)Cc2ccc(OC)c(OC)c2)cc1OC [Formulation M4N, meso-1,4-bis(3,4-dimethoxyphenyl)-2,3-dimethylbutane]
Dissolution After Cool Down [1]: Y | Dissolution After Rotation [1]: N | Dissolution After Heating at X° C. (M4N 10 mg/mL in 32% HP-β-CD, 20% PEG 400 (v/v), 60°): Y at 60° | Dissolution After Cool Down (M4N 10 mg/mL in 40% HP-β-CD): Y | Dissolution After Rotation (M4N 10 mg/mL in 40% HP-β-CD): N | Dissolution After Heating at X° C. [2]: N | Dissolution After Rotation [2]: N | Dissolution After Rotation (M4N 10 mg/mL in 40% HP-β-CD, 2.5% PG (v/v)): N | Dissolution After Heating at X° C. (M4N 10 mg/mL in 40% HP-β-CD, 2.5% PG (v/v), 80°): N at 80° | Dissolution After Cool Down [3]: N | Dissolution After Rotation [3]: N | Dissolution After Heating at X° C. (M4N 10 mg/mL in 40% HP-β-CD, 5% PEG 400 (v/v), 60°): Y at 60° | Dissolution After Heating at X° C. (M4N 10 mg/mL in 40% HP-β-CD, 80°): Y at 80° | Dissolution After Cool Down (M4N 10 mg/mL in 50% HP-β-CD): Y | Dissolution After Rotation (M4N 10 mg/mL in 50% HP-β-CD): N | Dissolution After Cool Down [4]: Y | Dissolution After Rotation [4]: N | Dissolution After Heating at X° C. (M4N 10 mg/mL in 50% HP-β-CD in saline, 90°): Y at 90° | Dissolution After Cool-Down [5]: Y | Dissolution After Rotation [5]: N | Dissolution After Rotation (M4N 10 mg/mL in 50% HP-β-CD, 0.5% HPMC, other experiment, no heat): Suspension | Dissolution After Heating at X° C. [6]: N | Dissolution After Rotation [6]: N | Dissolution After Heating at X° C. (M4N 10 mg/mL in 50% HP-β-CD, 90°): Y at 90° | Dissolution After Cool-Down (M4N 10 mg/mL in Corn Oil): Y | Dissolution After Cool-Down (M4N 10 mg/mL in Mineral Oil): Y | Dissolution After Cool-Down (M4N 10 mg/mL in Soybean Oil): Y | Dissolution After Rotation (M4N 12 mg/mL in 40% HP-β-CD): N | Dissolution After Heating at X° C. (M4N 12 mg/mL in 40% HP-β-CD, 80°): N at 80° | Dissolution After Cool Down [7]: Y | Dissolution After Rotation [7]: N | Dissolution After Heating at X° C. (M4N 12.5 mg/mL in 12.5% HP-β-CD, 50% PEG 300 (v/v), 60°): Y at 60° | Dissolution After Cool Down [8]: Y | Dissolution After Rotation [8]: N | Dissolution After Heating at X° C. (M4N 12.5 mg/mL in 12.5% HP-β-CD, 50% PEG 400 (v/v), 60°): Y at 60° | Dissolution After Cool Down [9]: Y | Dissolution After Rotation [9]: N | Dissolution After Heating at X° C. (M4N 12.5 mg/mL in 15% HP-β-CD, 50% PEG 300 (v/v), 60°): Y at 60° | Dissolution After Cool Down [10]: Y | Dissolution After Rotation [10]: N | Dissolution After Heating at X° C. (M4N 12.5 mg/mL in 15% HP-β-CD, 50% PEG 400 (v/v), 60°): Y at 60° | Dissolution After Cool Down [11]: Y | Dissolution After Rotation [11]: N | Dissolution After Heating at X° C. (M4N 12.5 mg/mL in 20% HP-β-CD, 50% PEG 300 (v/v), 60°): Y at 60° | Dissolution After Cool Down [12]: Y | Dissolution After Rotation [12]: N | Dissolution After Heating at X° C. (M4N 12.5 mg/mL in 20% HP-β-CD, 50% PEG 400 (v/v), 60°): Y at 60° | Dissolution After Cool Down [13]: Y | Dissolution After Rotation [13]: N | Dissolution After Heating at X° C. (M4N 12.5 mg/mL in 30% HP-β-CD, 25% PEG 400 (v/v), 60°): Y at 60° | Dissolution After Cool Down [14]: Y | Dissolution After Rotation [14]: N | Dissolution After Heating at X° C. (M4N 12.9 mg/mL in 23% HP-β-CD, 43% PEG 400 (v/v), 60° C.): Y at 60 °C | Dissolution After Cool Down [15]: Y | Dissolution After Rotation [15]: N | Dissolution After Heating at X° C. (M4N 12.9 mg/mL in 23% HP-β-CD, 43 PEG 300 (v/v), 60°): Y at 60° | Dissolution After Cool Down [16]: Y | Dissolution After Rotation [16]: N | Dissolution After Heating at X° C. (M4N 13.3 mg/mL in 27% HP-β-CD, 33% PEG 300 (v/v), 60°): Y at 60°

Reference: patent US20090022803A1, “Oral Formulations For Delivery of Catecholic Butanes Including Ndga Compounds” (priority 2005, published 2009)
